Test results taken from patent publication US6204005A, “Immunoassay for toxic congeners of polychlorinated biphenyls” (priority 1995, dated 2001).

How the values were obtained:
[1] = relative to 2,3,7,8-TCDD = 1.0; cited from earlier work
[2] = system: Hapten VII sera (polyclonal antibodies); assay: Sera direct EIA with Hapten VII sera and competitor enzyme conjugate; assay type: binding, mice; details: for Assay sensitivity versus Hapten VII enzyme conjugate based assay: in words, Table 6
Description: The competitors A-E and Hapten VII were conjugated to the enzyme, amino modified Horseradish Peroxidase (HRP) (horseradish peroxidase commercially available from Sigma Chemical Co. (No. P-6782), St. Louis, Mo.; amino modified per R. Hsiao and H. Royer, Archives Biochem. Biophys., 198, 379-385 (1979) to give 6-24 free amines), using the carbodiimide mediated carboxyl activation procedure described for Hapten VII in Example 24. Hapten and competitor load were determined by UV/Vis spectroscopy, also as described for Hapten VII.
The direct EIA (immoblized antibody and competitor enzyme conjugate) was performed as follows. Serum or monoclonal antibody supernatant stored at -20° C. was diluted 1,000-40,000 fold with PBS which contained 0.1% Tween-20. This solution was dispensed (500 ul) into donkey anti-mouse second antibody coated tubes (DAM Tubes commercially available from Millipore Corp., Bedford, Mass.) and incubated at room temperature overnight. The antisera solution was decanted from the tubes and the tubes washed 3 times with distilled water. Non-specific sites in the tubes were blocked with 600 ul of BSA blocking buffer (EIA Blocking Buffer commercially available from Millipore Corp., Bedford, Mass.) and incubated for 2 hours at room temperature or overnight at 4° C. The blocking buffer was decanted and the tubes allowed to dry under ambient room conditions for at least 2 hours. The assay was performed by adding 500 ul of assay diluent (1% methanol (v/v) and 0.005% Tween-20 (w/v) in distilled water) to the required number of tubes followed by 10 ul of a methanol solution of the analyte (PCB congener). After a 5 minute incubation at room temperature, the solution was decanted and the tubes rinsed 3-4 times with tap water. The horseradish peroxidase competitor or Hapten VII conjugates were diluted 1,000-60,000 fold from 2-5 mg/ml stock solutions in PBS with conjugate diluent (Enzyme Conjugate Diluent commercially available from Millipore Corp., Bedford, Mass.). The enzyme conjugate (200 ul) was added to the tubes followed by a 5 minute incubation at room temperature. The conjugate solution was decanted and the tubes rinsed 3-4 times with tap water. Enzyme substrate solution (500 ul, KPL No. 50-76-04 commercially available from KPL Laboratories, Gaithersburg, Md.) was added and the tubes were incubated at room temperature for 5-15 minutes. The enzyme reaction was stopped with the addition of 500 ul of 1N HCl. The OD of the solution was determined at 450 nm. The data was plotted using Log (Congener Concentration) versus B/Bo (B=Sample Absorbance, Bo=Sample Blank Absorbance).
The direct EIA (Method 19) was used to evaluate sera samples taken on day 120.

[3] = system: antibody in serum immobilized on goat anti-rabbit second antibody coated tubes; assay: Enzyme immunoassay (EIA) with HRP competitor or Hapten I conjugates, Aroclor 1248 analyte (Method D); assay type: binding; details: for Assay Response (I50): assay solution concentration of Aroclor 1248 producing 50% reduction in assay control signal, HRP conjugate of the listed competitor; for Relative Response: improvement in I50 sensitivity compared to homologous (Hapten I) based assay
Description: Serum stored at -20° C. was diluted 1,000-40,000 fold with PBS which contained 0.1% Tween-20. This solution was dispensed (500 μl) into goat anti-rabbit second antibody coated tubes (GAR Tubes commercially available from Millipore Corp., Bedford, Mass.) and incubated at room temperature overnight. The antisera solution was decanted from the tubes and the tubes were washed 3 times with distilled water. Non-specific sites in the tubes were blocked with 600 μl of a BSA blocking buffer (EIA Blocking Buffer commercially available from Millipore Corp., Bedford, Mass.) and incubated for 2 hours at room temperature or overnight at 4° C. The blocking buffer was decanted and the tubes allowed to dry under ambient room conditions for 2 hours or overnight. The assay was performed by adding 500 μl of assay diluent (1% methanol (v/v) and 0.005% Tween-20 (w/v) in distilled water) to the required number of tubes followed by 10 μl of a methanol solution which contained 0-50 ppm of Aroclor 1248. After a 5 minute incubation at room temperature, the solution was decanted and the tubes rinsed 3-4 times with tap water. The horseradish peroxidase-(HRP) competitor conjugate or Hapten I conjugates were diluted 100-100,000 fold from 2-5 mg/ml stock solutions in PBS with conjugate diluent (Enzyme Conjugate Diluent commercially available from Millipore Corp., Bedford, Mass.). Enzyme-competitor conjugate was added in 200 μl and the tubes were incubated at room temperature for 5 minutes. The conjugate solution was decanted and the tubes rinsed 3-4 times with tap water. Enzyme substrate solution (500 μl, KPL No. 50-76-04 commercially available from KPL Laboratories, Gaithersburg, Md.) was added and the tubes were incubated at room temperature for 3-15 minutes. The enzyme reaction was stopped with the addition of 500 μl of 1N HCl. The OD of the solution was determined at 450 nm and the I50 values were determined using a correlation of Log (Aroclor 1248 Concentration in the assay solution in parts per billion=ppb) versus B/Bo ratio where B=Sample Absorbance and Bo=Absorbance of the Blank Sample.
The competitors and Hapten I were conjugated to the enzyme, amino modified Horseradish Peroxidase (HRP) (horseradish peroxidase commercially available from Sigma Chemical Co. (No. P-6782), St. Louis, Mo.; amino modified per ref R. Hsiao and H. Royer, Archives Biochem. Biophysics, 198, 379-385 (1979) to give 6-24 free amines), using the carbodiimide mediated carboxyl activation procedure described for Hapten I in Example 5.
EIA analysis of Aroclor 1248 (Method D) was performed using horseradish peroxidase (HRP) Conjugates of the competitors illustrated in FIG. 4.

[4] = Table 7, Hapten VII sera and Competitor D direct EIA
[5] = Table 6, I50 of analyte 3,3',4,4'-tetrachlorobiphenyl with the listed competitor, Hapten VII sera

## Clc1ccc(-c2cc(Cl)c(Cl)cc2Cl)c(Cl)c1 [2,2',4,4',5-pentachloro-]
[1]
  TEF: less than 0.00001

## Clc1ccc(Cl)c(-c2cc(Cl)ccc2Cl)c1 [2,2',5,5'-tetrachloro]
[1]
  TEF: less than 0.00001
[2]; [4]
  I50: > 20,000 ppb

## Clc1ccc(Cl)c(-c2ccccc2Cl)c1 [2,2',5-trichloro-]
[1]
  TEF: less than 0.00001

## Clc1cc2c(cc1Cl)Oc1cc(Cl)c(Cl)cc1O2 [2,3,7,8-TCDD, 2,3,7,8-tetrachlorodibenzo-p-dioxin]
[1]
  TEF: 1.0

## Clc1ccc(-c2ccccc2Cl)cc1 [2,4'-dichloro-]
[1]
  TEF: less than 0.00001

## Clc1ccc(-c2ccc(Cl)cc2Cl)cc1 [2,4,4',trichloro-]
[1]
  TEF: less than 0.00001

## Clc1ccc(-c2ccc(Cl)cc2)cc1 [4,4'-dichloro]
[2]; [4]
  I50: 4,300 ppb

## Clc1ccc(-c2cc(Cl)c(Cl)c(Cl)c2)cc1 [BZ No. 81, 3,4,4',5-tetra]
[1]
  TEF: 0.01

## Clc1ccc(-c2ccc(Cl)c(Cl)c2Cl)cc1Cl [BZ No. 105, 2,3,3',4,4'-penta]
[1]
  TEF: 0.001

## Clc1ccc(-c2cc(Cl)c(Cl)c(Cl)c2Cl)cc1 [BZ No. 114, 2,3,4,4',5-penta]
[1]
  TEF: 0.0001

## Clc1ccc(-c2cc(Cl)c(Cl)cc2Cl)cc1Cl [BZ No. 118, 2,3',4,4',5-penta]
[1]
  TEF: 0.00

## Clc1ccc(-c2cc(Cl)c(Cl)c(Cl)c2)c(Cl)c1 [BZ No. 123, 2,3',4,4',5'-penta]
[1]
  TEF: 0.001

## Clc1ccc(-c2cc(Cl)c(Cl)c(Cl)c2Cl)cc1Cl [BZ No. 156, 2,3,3',4,4',5-hexa]
[1]
  TEF: 0.001

## Clc1cc(-c2ccc(Cl)c(Cl)c2Cl)cc(Cl)c1Cl [BZ No. 157, 2,3,3',4,4',5-hexa]
[1]
  TEF: 0.00002

## Clc1cc(Cl)c(-c2cc(Cl)c(Cl)c(Cl)c2)cc1Cl [BZ No. 167, 2,3',4,4',5,5-hexa]
[1]
  TEF: 0.001

## Clc1cc(-c2cc(Cl)c(Cl)c(Cl)c2)cc(Cl)c1Cl [BZ No. 169, 3,3',4,4',5,5-hexa]
[1]
  TEF: 0.05

## Clc1cc(-c2cc(Cl)c(Cl)c(Cl)c2Cl)cc(Cl)c1Cl [BZ No. 189, 2,3,3',4,4',5,5'-hepta]
[1]
  TEF: 0.001

## O=C(O)CCc1ccc(Cl)c(Cl)c1 [Competitor 9]
[3]
  Assay Response (I50): 47 ppb
  Relative Response: 12 fold

## O=C(O)CCCCc1cc(Cl)ccc1Cl [Competitor 11]
[3]
  Assay Response (I50): 18 ppb
  Relative Response: 32 fold

## O=C(O)CCCC(=O)c1ccc(Cl)c(Cl)c1 [Competitor 12]
[3]
  Assay Response (I50): 23 ppb
  Relative Response: 24 fold

## O=C(O)CCCC(=O)Nc1ccc(Cl)c(Cl)c1 [Competitor 13]
[3]
  Assay Response (I50): 2000 ppb
  Relative Response: < 1 fold

## O=C(O)C=Cc1ccc(Cl)c(Cl)c1 [Competitor 14]
[3]
  Assay Response (I50): 64 ppb
  Relative Response: 9 fold

## O=C(O)CCCOc1ccc(Cl)cc1Cl [Competitor 15]
[3]
  Assay Response (I50): 49 ppb
  Relative Response: 12 fold

## O=C(O)CCCOc1ccc(Cl)c(Cl)c1 [Competitor 16]
[3]
  Assay Response (I50): 31 ppb
  Relative Response: 18 fold

## O=C(O)CCCSc1cc(Cl)ccc1Cl [Competitor 17]
[3]
  Assay Response (I50): 33 ppb
  Relative Response: 18 fold

## O=C(O)CCCOc1ccc(Cl)c(Cl)c1 [Competitor B]
[2]; [5]
  I50: 3.5 ppb
[2]
  Assay sensitivity versus Hapten VII enzyme conjugate based assay: significantly more sensitive

## O=C(O)CCCSc1cc(Cl)ccc1Cl [Competitor C]
[2]; [5]
  I50: 1.5 ppb
[2]
  Assay sensitivity versus Hapten VII enzyme conjugate based assay: significantly more sensitive

## O=C(O)CCCC(=O)c1ccc(Cl)c(Cl)c1 [Competitor D]
[2]; [5]
  I50: 3 ppb
[2]
  Assay sensitivity versus Hapten VII enzyme conjugate based assay: significantly more sensitive

## O=C(O)CCCCCOc1ccc(-c2cc(Cl)c(Cl)cc2Cl)c(Cl)c1 [Hapten I, 6-(2,2',4',5'-Tetrachlorobiphenyloxy)-4-yl hexanoic acid]
[3]
  Assay Response (I50): 570 ppb

## O=C(O)CCCCCOc1ccc(-c2ccc(Cl)c(Cl)c2)cc1Cl [Hapten VII, 6-(3,3',4'-Trichlorobiphenyloxy)-4-yl hexanoic acid]
[2]; [5]
  I50: 30-40 ppb
